{"source": "patent US10167258B2", "about": "“Inhibitors of mitochondrial pyruvate dehydrogenase kinase isoforms 1-4 and uses thereof” (The Board of Regents of the University of Texas System, priority 2013, dated 2019)", "key": {"human PDK1": {"biological_target": "T1, human PDK1 (Homo sapiens, UniProt Q15118)", "T1 construct": "made in house", "T1 sequence (Q15118 29-436)": "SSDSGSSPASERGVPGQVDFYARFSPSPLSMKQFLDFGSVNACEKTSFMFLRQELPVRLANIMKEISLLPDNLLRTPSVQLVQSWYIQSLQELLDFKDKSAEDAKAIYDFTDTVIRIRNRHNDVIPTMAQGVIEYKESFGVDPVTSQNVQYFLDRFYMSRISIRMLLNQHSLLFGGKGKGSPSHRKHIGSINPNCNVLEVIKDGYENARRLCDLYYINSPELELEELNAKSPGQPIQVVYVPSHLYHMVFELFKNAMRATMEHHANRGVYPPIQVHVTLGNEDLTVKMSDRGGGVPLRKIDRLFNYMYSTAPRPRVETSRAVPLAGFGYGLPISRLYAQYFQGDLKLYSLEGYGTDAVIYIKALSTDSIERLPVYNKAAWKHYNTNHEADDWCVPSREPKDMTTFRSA", "experiment": "Assay for inhibition of PDK activity, PDK1", "format": "biochemical", "details": "absence of E2/E3BP core (−)", "procedure": "(§1) Recombinant human PDK2 was expressed and purified as a N terminal His6-tagged SUMO fusion protein with a tobacco-etch-virus protease (TEV) cleavage site in front of the N-terminal PDK2 sequence (26), and was used directly for the activity assay and binding affinity analyses. For crystallization, the protein was subjected to a TEV-protease digestion, and the untagged PDK2 protein was purified on a Superdex 200 column in 20 mM Tris-HCl (pH 8.0), 150 mM NaCl and 5 mM DTT. The purified protein was concentrated to 35-40 mg/ml and stored at −80° C. in small aliquots. Recombinant human PDK1, PDK3 and PDK4 were expressed and purified as described previously (26).\n. The remaining steps were described previously (26). IC50 values were obtained by the curve fitting of inhibition isotherms using Prism 6 (GraphPad software, Inc.)."}, "[1]": {"biological_target": "T2, N-terminal domain of human Hsp90 (Homo sapiens, UniProt P07900)", "T2 construct": "the N-terminal domain (residue 1-236) of human Hsp90; His6 (N); SUMO (N); made in house; host or cells: E. coli BL21", "experiment": "Isothermal titration calorimetry (ITC), binding to Hsp90 N-terminal domain", "details": "read-out: Kd, nM for Hsp 90", "procedure": "The sequence encoding the N-terminal domain was amplified and cloned into the pSUMO expression vector (Lifesensors, Malvern, Pa.). The fusion protein of His6-tagged SUMO-Hsp90 N-terminal domain was expressed in E. coli BL21 cells and purified with Ni-NTA resin (Qiagen) and on Superdex-200 column in 20 mM Tris.HCl, pH 7.5 and 500 mM NaCl.\n(§2) The PDK2 or Hsp90 N-terminal domain protein was dialyzed against one liter of the dialysis buffer containing 50 mM Tris-Cl, pH 7.5, 50 mM KCl, 1 mM MgCl2, and 0.5 mM β-mercaptoethanol. […] All of the ITC data were initially analyzed by the NITPIC program (32) to construct the baseline, followed by curve-fitting in Origin 7 to obtain binding parameters."}, "PDC [2]": {"test_system": "PDC", "experiment": "Assay for PDC activity in tissues of treated DIO mice", "format": "in vivo", "details": "single dose 70 mg/kg IP, 10 h", "procedure": "Six- to eight-week old C57BL/6J male mice were obtained from the local campus breeding colony at UT Southwestern Medical Center (Dallas, Tex.) and randomized into two groups: vehicle- and PS10-treated. Prior to the treatment, mice were fed with a 60% high-fat diet, which contained 32% saturated and 68% unsaturated fat (catalog number: D12492, Research Diet Inc. New Brunswick, N.J.), for eight to ten weeks to produce DIO animals. PS-10 was dissolved in 100% DMSO and then diluted to make a 10% DMSO aqueous solution containing 17.5% (w/v) (2-hydroxypropyl)-β-cyclodextrin for delivery. Animals were dosed at mid-day by intraperitoneal (IP) injections at 70 mg/kg using 1-ml syringe and 30-gauge needle. The length of the treatment is indicted in each experiment. At 10 h after the last injection, animals were euthanized using carbon dioxide asphyxiation followed by cervical dislocation and dissection. Blood was harvested by cardiac puncture and stored on ice. Acidified citrate dextrose (ACD) was used as an anticoagulant. Immediately after blood collection, heart, liver, kidneys and both hind-leg quadriceps muscles were removed and snap frozen in liquid nitrogen. Average ischemia time before organ harvest was about 2 to 3 min. Blood was centrifuged in an Eppendorf 5415R refrigerated microcentrifuge at 9,300×g for 5 min to isolate plasma, which was subsequently stored at −80° C.\nLiquid nitrogen-stored tissue samples were removed and thawed on ice. Individual kidneys (200-250 mg), hearts (200-300 mg), muscle (200-300 mg) and liver (250-400 mg) tissues samples were manually homogenized in an ice-chilled glass homogenizer containing 1 ml of the homogenization buffer. The homogenization buffer contained 30 mM KPi, pH 7.5, 3 mM EDTA, 5 mM DTT, 1 mM benzamidine, 3% fetal bovine serum, 5% Triton X-100 and 1 mM leupeptin. Samples were transferred to ice-cold 10 ml polycarbonate tubes and spun in an ultracentrifuge at 25,000×g for 10 min to pellet cell and tissue debris. Supernatants were removed and stored on ice until diluted (1:3 for muscle, 1:5 for liver and 1:20 for kidneys and heart tissues) with a dilution buffer containing 50 mM HEPES, pH 7.5, 1.0 mM DTT, 0.1% Triton X-100, 5 mM DCA, 50 mM NaF, 3% fetal bovine serum and 1 mM leupeptin. The diluted samples (50 μl) were placed in each well of a 24-well plate containing 310 μl of the reaction mixture. A micro-bridge (Hampton Research) was pre-set into each well holding one piece of filter wick pre-soaked with 2 M NaOH. […] Assay plates were incubated further at 37° C. for 45 min. ^14CO2-trapped on 2 M NaOH soaked filter wicks were counted in a liquid scintillation counter. Total protein concentrations in the samples were determined by using BCA protein assay kit (Thermo fisher Scientific, Rockford, Ill.)."}, "[3]": {"experiment": "Solubility in DMSO used in the formulation", "format": "physicochemical", "details": "compared with PS8"}, "PDK2": {"biological_target": "PDK2 (Homo sapiens, UniProt Q15119)", "experiment": "Isothermal titration calorimetry (ITC), binding to PDK2", "design": "made in house", "details": "ITC; read-out: Kd, nM for PDK2", "procedure": "as §1, with “For crystallization, the protein was subjected to a TEV-protease digestion, and the untagged PDK2 protein was purified on a Superdex 200 column in 20 mM Tris-HCl (pH 8.0), 150 mM NaCl and 5 mM DTT.” left out\nas §2"}, "PDC [4]": {"test_system": "PDC", "experiment": "PDC flux in perfused hearts from DIO mice by hyperpolarized 13C NMR", "details": "single dose 70 mg/kg IP, 8-hr", "experimental": "Metabolism of [1-^13C]pyruvate to [1-^13C]alanine, [1-^13C]lactate, H^13CO3^− and ^13CO2 were detected in real time by ^13C NMR spectra, following the injection of 2 mM HP [1-^13C]pyruvate into perfused heart (FIG. 10A)."}}, "data": [{"smiles": "O=S(=O)(c1ccc(O)cc1O)N1Cc2cc(O)cc(O)c2C1", "note": "[PS10, 2-((2,4-dihydroxyphenyl)sulfonyl)isoindoline-4,6-diol]", "values": [{"measurement": "IC50", "setting": "human PDK1", "result": 2.07, "unit": "µM"}, {"measurement": "Kd", "setting": "[1]", "result": 47000, "unit": "nM"}, {"measurement": "PDC activity in heart, fold over vehicle-treated", "setting": "PDC [2]", "result": 11, "unit": "fold"}, {"measurement": "PDC activity in kidneys, fold enhancement over vehicle-treated", "setting": "PDC [2]", "result": 1.4, "unit": "fold"}, {"measurement": "PDC activity in liver, fold over vehicle-treated", "setting": "PDC [2]", "result": 23, "unit": "fold"}, {"measurement": "PDC activity in quadriceps muscle vs vehicle-treated", "setting": "PDC [2]", "result": "no difference"}, {"measurement": "solubility in DMSO", "setting": "[3]", "result": "better solubility in DMSO"}, {"measurement": "Kd", "setting": "PDK2", "result": 239, "unit": "nM"}, {"measurement": "cardiac PDC flux in DIO mice", "setting": "PDC [4]", "result": "smaller increase"}]}]}
